# Experiments:
# [1] = tested on: CT26 lung metastasis; assay: In vivo lung metastasis assay, CT26 colon carcinoma; parameters: species or system BALB/c mice; conditions: for Tumor protection in IFN-γ knockout mice: IFN-γ−/− BALB/c; for Effect of NOS inhibition (L-NAME vs D-NAME) on tumor protection: WT mice, 0.2 mg L-NAME i.p., FIG. 6, 10A; for Rank order of tumor protection: dose of 50 pmoles; for Effect of TNF-α blockade (TNF-αR-Fc, etanercept) on protection: 100 μg etanercept every other day, FIG. 10C
# Procedure: (§1) In vivo lung metastasis assay. 5×10^5 CT26 cells in 0.2 ml PBS were injected i.v. into the tail vein. Glycolipid or vehicle control (0.00025% Tween 20) was injected i.p. (in 0.2 ml PBS) within one hour after tumor challenge. Mice were sacrificed 12-16 days after tumor challenge, and lungs were stained and fixed and metastases were enumerated as previously described (Park, J. M., et al., International J. of Cancer, 114:80-87 (2004)). The same protocol was used for the B16F10 cell line, except that lungs were perfused with PBS instead of ink before removal.
# For CD8^+T and NK cell depletion, mice were treated with anti-CD8 (200 μg/injection), anti-asialo GM1 (25 μl/injection), or control antibodies 1 day prior to tumor challenge, the day of challenge, and 5 and 10 days following tumor challenge. CD8^+T and NK cell depletion of >90% was confirmed by flow cytometric staining for CD8 (clone 53-6.7, BD Biosciences, Rockville, Md.) and pan-NK cell marker (clone DX5, eBioscience, San Diego, Calif.) at the conclusion of the experiment. For Gr-1^+ cell depletion, mice were injected i.p. with 100, 50, or 1 μg anti-Gr-1 antibody, 16 and 40 hours after tumor challenge. CD11b^+Gr-1^high cell depletion of >99% and CD11b^+Gr-1^intermediate cell depletion of >80% by 100 μg of anti-Gr-1 antibodies, was confirmed by flow cytometric staining for CD11b (clone M1/70, eBioscience), Gr-1 (clone RB6-8C5, BD Biosciences), Ly-6C (clone AL-21, BD Biosciences) and Ly6G. (clone 1A8, BD Biosciences). Where indicated, mice received 0.2 mg L-NAME or D-NAME i.p. twice per day on the day of tumor challenge, the day after tumor challenge, and once daily for 2 weeks after tumor injection. Blockade of TNF-α was achieved by administration of 100 μg of etanercept every other day, beginning immediately following tumor challenge, per the method of Fichtner-Feigl, S., et al., Cancer Res., 68:3467-3475 (2008). For PPARγ inhibition, mice were treated 0.15 mg/ml GW9662 (200 μL i.p.) or vehicle control (0.5% DMSO in PBS) immediately following tumor challenge, and then 30 minutes prior to glycolipid administration, via the method of Coste, A., et al., J. Immunol., 180:4939-4947 (2008).
# [2] = tested on: BALB/c splenocytes; assay: In vitro cytokine assay (ELISA); assay type: cell-based, BALB/c mice; conditions: 48 hours; for IFN-γ production in vitro / IL-4 production in vitro / IL-13 production in vitro: ELISA; for IFN-γ production in vitro: FIG. 7A; for IL-4 production in vitro: FIG. 7B; for IL-13 production in vitro: FIG. 7C
# Procedure: In vitro cytokine assay. Splenocytes (8×10^5/well of 96 well plates) from BALB/c mice were stimulated with glycolipid or solvent control for 48 hours. Supernatants were collected, and the concentration of IFN-γ, IL-4, or IL-13 was determined by ELISA.
# [3] = tested on: IFN-γ, IL-4, IL-13, IL-12 (p70), and TNF-α in plasma; assay: In vivo cytokine assay (plasma, multiplex); parameters: species or system BALB/c mice; conditions: 0-24 hours; for IL-4 in plasma: FIG. 8C; for IL-13 in plasma: FIG. 8E; for IFN-γ in plasma: 50 pmoles i.p. after CT26 i.v., FIG. 8A
# Procedure: FIGS. 8A-8E show graphs where the cytokine production induced by the glycolipid panel was tested in vivo. BALB/c mice were challenged with CT26 (5×10^5) i.v. followed by 50 pmoles of glycolipid or vehicle control i.p. at time 0. Mice were bled retroorbitally at 0, 3, 6, 12, and 24 hours, and the amount of IFN-γ (8A), TNF-α (8B), IL-4 (8C), IL-12 (p70) (8D), and IL-13 (8E) in plasma was determined. Each data point represents mean±SD of triplicates. […] Little cytokine production was detected following OCH and AH04-2 administration. β-ManCer induced very little cytokine production except for some IL-12 and TNF-α.
# In vivo cytokine assay. The concentration of IFN-γ, IL-4, IL-13, IL-12 (p70), and TNF-α in plasma samples was determined by MILLIPLEX cytokine multiplex immunoassay kit (Millipore, Billerica, Mass.) using a Bio-Plex system (Bio-Rad, Hercules, Calif.) according to manufacturer's instructions.
# [4] = tested on: iNKT cells; assay: In vitro iNKT activation (CFSE dilution, splenocytes); assay type: cell-based, mice; conditions: for Proliferation of iNKT cells (CFSE dilution): 3.5-day stimulation of mouse splenocytes, FIG. 3
# Procedure: In vitro iNKT activation. Splenocytes were harvested from mice (n=3), and erythrocytes were depleted with ACK Lysis Buffer (Lonza, Walkersville, Md.). Cells were labeled with 0.1 μM CFSE (Invitrogen, Carlsbad, Calif.) for 15 minutes at room temperature. Labeled cells (4×10^6 cells/well of 24-well plate) were stimulated for 3.5 days with glycolipid or vehicle control. At the end of the culture, cells were harvested and stained with PBS57-loaded CD1d tetramer (NIH Tetramer Facility) and anti-CD3 (clone 145-2C11, Biolegend). The fluorescence of stained cells was measured by FACSCalibur (BD Biosciences), and data were analyzed by Flowjo (Tree Star, Inc., Ashland, Oreg.).
# [5] = tested on: activated NKT cells; assay: Anergy: re-stimulation of splenocytes one month after in vivo treatment; parameters: species or system mice; conditions: for IFN-γ production on re-stimulation, compared to cells from vehicle-treated mice: 48 hours of re-stimulation, FIG. 13B; for Splenocyte proliferation on re-stimulation, compared to cells from vehicle-treated mice: re-stimulation with α-GalCer or β-ManCer, 3H-thymidine, 72-hour culture, FIG. 13A
# Procedure: FIG. 13A is a graph showing splenocyte proliferation measured by ^3H-thymidine incorporation during the final 8 hours of a 72-hour culture after being re-stimulated in culture. Pretreatment with α-GalCer induces anergy but pretreatment with β-ManCer induces much less anergy.
# FIG. 13B is a graph showing the amount of IFN-γ produced by the splenocyte culture after 48 hours of re-stimulation.
# It is known that α-GalCer induces strong anergy of activated NKT cells for over a month after in vivo stimulation. […] Mice were treated with α-GalCer, β-ManCer, or vehicle, and one month later, splenocytes were re-stimulated, and the degree of activation was measured by proliferation and IFN-γ production.
# [6] = tested on: B16F10 melanoma lung metastasis; assay: In vivo lung metastasis assay, B16F10 melanoma; conditions: C57BL/6 mice, dose titration; FIG. 12
# Procedure: as §1
# [7] = tested on: 24.9.E NKT cell hybridoma; assay: Plate-bound mCD1d hybridoma stimulation assay, 24.9.E; assay type: cell-based, mouse
# Procedure: (§2) Plate-bound mCD1d hybridoma stimulation assay. Protocol was modified from that of Gumperz et al. (Gumperz, J. E., et al., Immunity, 12(2):211-221 (2000)). mCD1d dimer/Ig fusion protein (BD Biosciences) was incubated with the indicated concentrations of glycolipid in pH 5 sodium acetate buffer containing 0.01% Tween20 and 45 μg/ml saposin C (provided by Nico Tjandra and Motoshi Suzuki [both from National Heart, Lung, and Blood Institute, NIH, Bethesda, Md., USA]) overnight at 37° C. The mCD1d dimers loaded with glycolipid were loaded onto 96-well Protein G Plates (Pierce, Rockford, Ill.) and incubated for 48 hours at 37° C. The plates were washed with PBS and tissue culture media to remove anything not coated on the plates. 1×10^5 24.9. E or DN32.D3 iNKT hybridoma cells were added to each well and incubated at 37° C. and 5% CO2 for 24 hours. Supernatants were collected and analyzed for IL-2 by ELISA.
# [8] = tested on: DN32.D3 NKT cell hybridoma; assay: Plate-bound mCD1d hybridoma stimulation assay, DN32.D3; assay type: cell-based, mouse
# Procedure: as §2
# [9] = tested on: iNKT cells; assay: Upregulation of activation markers CD25 and CD69 on iNKT cells; assay type: cell-based; conditions: mouse splenocytes stimulated overnight; data not shown
smiles,measurement,setting,value
"CCCCC/C=C\C/C=C\CCCCCCCCCC(=O)N[C@@H](CO[C@H]1O[C@H](CO)[C@H](O)[C@H](O)[C@H]1O)[C@H](O)[C@H](O)CCCCCCCCCCCCCC [C20:2, reference compound]",Tumor protection in IFN-γ knockout mice,"[1]; 50 pmoles, FIG. 9A",completely failed to induce any tumor protection
same,Effect of NOS inhibition (L-NAME vs D-NAME) on tumor protection,[1]; 50 pmoles glycolipid,no effect
same,Rank order of tumor protection,[1]; FIG. 2D,similarly protective
same,IFN-γ production in vitro,[2],lower IFN-γ level
same,IL-4 production in vitro,[2],higher amounts
same,IL-13 production in vitro,[2],higher amounts
same,IL-4 in plasma,[3]; 50 pmoles i.p.,increased
same,IL-13 in plasma,[3]; 50 pmoles i.p.,increased
CCCCCCCCCCCCCCCCCCCCCCCC(=O)N[C@@H](COC1OC(CO)C(O)C(O)C1O)[C@H](O)[C@H](O)CCCCC (stereo partly drawn) [OCH],Rank order of tumor protection,[1]; FIG. 2D,significantly less tumor killing
same,IFN-γ production in vitro,[2],lower IFN-γ level
same,IL-4 production in vitro,[2],higher amounts
same,IL-13 production in vitro,[2],higher amounts
same,Cytokine production in vivo (overall),[3]; 50 pmoles i.p.,Much less cytokine production
"CCCCCCCCCCCCCCCCCCCCCCCCCC(=O)N[C@@H](CO[C@H]1O[C@H](CO)[C@H](O)[C@H](O)[C@H]1O)[C@H](O)[C@H](O)CCCCCCCCCCCCCC [α-GalCer, α-galactosylceramide, reference compound]","Effect of TNF-α blockade (TNF-αR-Fc, etanercept) on protection",[1],no effect
same,Tumor protection in IFN-γ knockout mice,"[1]; 50 pmoles, FIG. 9A",completely failed to induce any tumor protection
same,Effect of NOS inhibition (L-NAME vs D-NAME) on tumor protection,[1]; 50 pmoles glycolipid,no effect
same,Rank order of tumor protection,[1]; FIG. 2D,greatest protection
same,Potency relative to β-ManCer,"[1]; results at the 5 pmole dose, FIG. 2D",about a log more potent
same,Proliferation of iNKT cells (CFSE dilution),[4],44%
same,IFN-γ production in vitro,[2],greatest IFN-γ production
same,IFN-γ in plasma,[3],most IFN-γ
same,"IFN-γ production on re-stimulation, compared to cells from vehicle-treated mice",[5],severely suppressed
same,"Splenocyte proliferation on re-stimulation, compared to cells from vehicle-treated mice",[5],severely suppressed
"CCCCCCCCCCCCCCCCCCCCCCCCCC(=O)N[C@@H](COC1OC(CO)C(O)C(O)C1O)[C@H](O)[C@H](O)CCCCCCCCCCCCCC (stereo partly drawn) [β-ManCer, 2-hexacosanoylamino-1-O-β-mannopyranosyl-D-ribo-1,3,4-octadecanetriol]","Effect of TNF-α blockade (TNF-αR-Fc, etanercept) on protection",[1],completely reversed the protection
same,Effect of PPARγ inhibition with GW 9662 on induced protection,"[1]; 0.15 mg/ml GW9662 200 μL i.p., 50 pmoles glycolipid, FIG. 2C",no effect
same,Potency of tumor protection relative to α-ManCer and β-GalCer,"[1]; CT26 lung metastasis, 50 vs 5,000 pmoles",100 fold
same,Fewer lung nodules compared to vehicle control mice,"[1]; IFN-γ knockout mice, 50 pmoles, p=0.0079, FIG. 9A",50%
same,Protection in IFN-γ−/− mice when NOS was inhibited,"[1]; IFN-γ−/− mice, L-NAME, FIG. 10B",completely lost
same,Tumor protection in Jα18KO mice (lack only iNKT cells),"[1]; Jα18KO BALB/c mice, FIG. 2B",All protection was lost
same,Protection against CT26 lung metastasis,"[1]; WT BALB/c, glycolipid i.p. within one hour after tumor challenge, β-ManCer 50 pmoles, FIG. 2A",strong protection
same,Effect of NOS inhibition (L-NAME vs D-NAME) on tumor protection,[1]; 50 pmoles glycolipid,significantly inhibited protection
same,Effect of depletion of Gr-1+ cells on tumor protection,"[1]; anti-Gr-1 antibodies, FIG. 10D",no effect
same,Rank order of tumor protection,[1]; FIG. 2D,similarly protective
same,"Tumor protection against B16F10 melanoma lung metastasis, relative to α-GalCer",[6],at least as potent
same,Inhibition of iNKT proliferation by CD1d-blocking antibody,[4]; 3.5-day stimulation,86%
same,Proliferation of iNKT cells (CFSE dilution),[4],40%
same,Proliferation of iNKT cells with CD1d-blocking antibody,"[4]; 3.5-day stimulation, CD1d-blocking antibody",5.4%
same,Increase in IL-2 production over unloaded mCD1d,[7]; 24.9.E,25 fold
same,"IL-2 production, glycolipid-loaded mCD1d dimers","[7]; 24.9.E, 24 hours, no APCs, FIG. 5",able to induce IL-2 production
same,"IL-2 production, soluble glycolipid in the absence of CD1d","[7]; 24.9.E, FIG. 5",failed to induce IL-2 production above background
same,"IL-2 production, difference (less) versus α-GalCer",[7]; stated for the 24.9.E and DN32.D3 hybridomas together,10- to 50 fold
same,Increase in IL-2 production over unloaded mCD1d,[8]; DN32.D3,over 500 fold
same,"IL-2 production, glycolipid-loaded mCD1d dimers","[8]; DN32.D3, 24 hours, no APCs, FIG. 5",able to induce IL-2 production
same,"IL-2 production, soluble glycolipid in the absence of CD1d","[8]; DN32.D3, FIG. 5",failed to induce IL-2 production above background
same,Cytokine production in vitro (overall),"[2]; IFN-γ, IL-4, IL-13",least cytokine production
same,Cytokines at concentrations less than 30 nM,[2]; glycolipid less than 30 nM,no cytokines detected
same,IFN-γ in plasma,[3],no substantial increase
same,IL-12 in plasma,[3]; 50 pmoles i.p.,only a modest increase
same,TNF-α in plasma,[3]; 50 pmoles i.p.,only a modest increase
same,IL-4 in plasma,[3]; 50 pmoles i.p.,no substantial increase
same,IL-13 in plasma,[3]; 50 pmoles i.p.,no substantial increase
same,"IFN-γ production on re-stimulation, compared to cells from vehicle-treated mice",[5],slight reduction
same,"Splenocyte proliferation on re-stimulation, compared to cells from vehicle-treated mice",[5],slight reduction
same,Upregulation of CD25 and CD69 on iNKT cells,[9],induced upregulation

# — patent publication US9517243B2, “Beta-mannosylceramide and stimulation of NKT cell anti-tumor immunity” (The United States of America, as represented by the …, priority 2010, dated 2016)
